# Laboratory results published in patent US20080027072A1, “Potentiation of MC4 receptor activity” (AMPLA Pharmaceuticals, Inc., priority 2006, published 2008).
# Experiments:
# [1] = molecular target: T1, human Melonocortin-4 (MC4) receptor (Homo sapiens, UniProt P32245); test: α-MSH dose-response, intracellular Ca2+ (Indo-1) flow cytometry (DSIS) in clonal MC4 cells, +/- compound; type: cell-based; details: compound at a concentration of 1-10 μM
# T1 construct: expressed in transfected cells; host or cells: HEK293 (ATCC), G418-selected, FACS-sorted clonal cMC4 line
# Method: The cMC4 and Control Cells were plated 24-48 hours in advance, and were harvested with trypsin at ˜80% confluency. Cells were then centrifuged and resuspended two times in Hybridoma Media, the final time at a concentration of 1×10^6 cells/mL. Both cell lines were then loaded with 2 mM of Indo-1 plus 3 μg/mL Biotin-X DHPE and then were incubated for 1 hour on a rotator at room temperature. Cells were washed two times and resuspended at a concentration of 1×10^6 cells/mL in Hybridoma Media. The cMC4 cell line then got 2 μg/ml of Alexa 488-streptavidin (Invitrogen/Molecular Probes). Cells were incubated for an additional 30 minutes on a rocker at room temperature. […]
# The probe-loaded cMC4 and Control cell mixture was placed in the Cell Suspension System on the DSIS where they were continuously rocked to keep them in a suspended state. […] The DSIS software, NVS Sampler, recorded a timing file and the CyAn software, Summit, recorded a data file. These two files were then compiled and analyzed by NVS Analyzer (see below) to determine the percent of cells that responded to each concentration. The data were transferred to GraphPAD Prism (GraphPad Software, San Diego, Calif.) for a non-linear regression curve fit that determined the EC50. […]
# When the screen was complete, the data files and the timing files were analyzed using NVS Analyzer. […]
# [2] = system: diet-induced obese male wild-type C57BL/6J mice; test: Food intake and body weight, diet-induced obese wild-type mice; type: in vivo; details: 40 mg/kg oral, day 2, wild-type
# Method: (§1) Mice were dosed at 40 mg/kg for two days with vehicle or test drug. Body weight and food and water intake were recorded daily.
# (§2) The test compound was ground while being diluted in 1% methylcellulose, and the final solution was sonicated to give a uniform suspension suitable for dosing. Drug solutions were made up fresh each day 1-2 h before dosing and were administered using a dose volume in the range of 1-3 ml/kg.
# [3] = system: diet-induced obese male MC4 knockout C57BL/6J mice; test: Food intake and body weight, diet-induced obese MC4 knockout mice; type: in vivo; details: 40 mg/kg oral
# Method: as §1, §2
# MC4 receptor [4] = molecular target: T2, MC4 receptor (Homo sapiens, UniProt P32245); test: Binding experiments with the MC4 receptor inverse agonist AgRP (FIG. 6); design: expressed in transfected cells
# MC4 receptor [5] = molecular target: T2, MC4 receptor; test: Single-well kinetics of the αMSH response (FIGS. 9A-9E); type: cell-based; design: expressed in transfected cells
# Method: FIGS. 9A-9E show response kinetics from single-well assays. The response was initiated by αMSH with or without Compound 1. […] Whereas at 1 μM and 300 nM, αMSH onset and peak were increased and sustained. The onset and peak response increased with 3 μM and 10 μM concentrations of Compound 1 at all concentrations of αMSH.
# MC4 receptor [6] = molecular target: T2, MC4 receptor; test: Competition ligand binding assay with [125I]-NDP-α-MSH, HEK293 cell membranes; design: expressed in transfected cells; host or cells: HEK293 stably expressing human MC4 receptor
# Method: The binding was carried out at room temperature for another 2 h. […] Binding was terminated by addition of cold binding buffer and filtration on Whatman GF/B glass-fiber filters using a sampling manifold. The filters were washed 6 times with cold binding buffer and air-dried overnight. The radioactivity was quantified on a TopCounter after adding scintillation fluid. […] Data were analyzed by non-linear regression using program GraphPAD Prism (FIG. 5).
# MC4 receptor [7] = molecular target: T2, MC4 receptor; test: ELISA-based cAMP assay in HEK293 cells stably expressing human MC4 receptors; type: cell-based; design: expressed in transfected cells; host or cells: HEK293 stably expressing human MC4 receptor
# Method: ELISA-based cAMP assay was used to determine ligand-induced cAMP accumulation in HEK293 cells stably expressing human MC4 receptors in 96-well plate format. Compounds and cAMP standards were diluted in DMEM (without FBS and phenol red) containing 1 mM IBMX. Cells were plated in T-75 flasks and cultured for 24 h before use. Cells were removed from tissue culture flasks using enzyme-free cell dissociation buffer, washed and resuspended in DMEM (without FBS and phenol red) containing 1 mM IBMX at a density of 1×10^6 cells/ml. […] After incubation for 1 h, 50 μl of lysis buffer (0.5% NP-40 in TBS) was added, and incubated for 30 min. After adding rabbit anti-cAMP antibody (Sigma) diluted in TBST (TBS containing 0.05% Tween 20) (25 μl/well) and incubating for 30 min, 25 μl of cAMP-HRP conjugate dilution (in TBST) was added, and incubated for another 1 h. The plate was washed 6 times with TBST. To each well 200 μl of substrate (SuperSignal ELISA Pico Chemiluminesent substrate, Pierce, #37070) was added. The chemiluminescence activity was measured by a luminescence plate reader (NOVAstar, BMG Labtech). cAMP amount for each sample was estimated from cAMP standard curve.
# [8] = system: diet-induced obese male C57BL/6J mice; test: 28-day body weight and food intake study in diet-induced obese mice; type: in vivo; details: day 29
# Method: Sibutramine, which is currently used clinically, and rimonabant, which has recently received regulatory approval for the management of obesity were used as reference compounds.
# C57BL/6J mice (7-8 weeks of age) were ordered from Charles River, Margate, Kent. Mice were group housed in polypropylene cages with free access to a high fat diet (D12451 45% of Kcal derived from fat; Research Diets, New Jersey, USA) and tap water at all times. Animals were maintained at 21±4° C. and 55±20% humidity on a normal phase 12 h light-dark cycle (lights on 04:30 h)
# Animals were exposed to the high fat diet for 16 weeks. During this time body weight was recorded weekly. At the end of 14 weeks animals were singly housed in polypropylene cages for a further two week period (weeks 14-16) and placed on reverse phase lighting (lights off for 8 h from 9.30-17.30 h) during which time the room was illuminated by red light. Animals were dosed with vehicle orally throughout the baseline period. Body weight and food and water intake was recorded daily. Towards the end of the baseline period animals were allocated to groups. Upon completion of the baseline period, mice were dosed for 28 days with vehicle or test drug.
# Body weight and food and water intake were recorded daily. Following drug administration the animals were examined and any overt behavior was recorded. For all dosing, the morning session was timed such that approximately half the mice were dosed at the time of lights out (09:30).
# The test compounds were dissolved in 1% methylcellulose. Drug solutions were made up fresh each day 1-2 h before dosing and were administered using a dose volume in the range of 1-3 ml/kg. Drug doses were expressed as free base.
# Resulting body weights, food intake and water intake were expressed as mean values±SEM, and the SEMs are calculated from residuals of the statistical model. Body weight data was analysed by ANCOVA with Day 1 as covariate followed by appropriate comparisons (two-tailed) to determine significant differences from the control group. […] Daily food and water intake data was analysed by ANOVA.
# T2 sequence (P32245 whole entry): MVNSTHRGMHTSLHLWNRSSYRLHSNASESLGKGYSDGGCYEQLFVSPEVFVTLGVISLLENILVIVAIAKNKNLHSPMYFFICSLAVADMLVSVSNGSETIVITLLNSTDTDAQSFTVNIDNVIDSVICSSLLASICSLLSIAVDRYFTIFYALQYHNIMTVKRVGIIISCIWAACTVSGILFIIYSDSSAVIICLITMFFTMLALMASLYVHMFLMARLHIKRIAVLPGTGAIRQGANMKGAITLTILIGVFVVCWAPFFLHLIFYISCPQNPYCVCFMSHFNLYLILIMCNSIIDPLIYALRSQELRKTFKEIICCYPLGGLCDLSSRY
# T1 sequence (P32245 whole entry): as above
smiles,measurement,setting,value
OC1(c2ccc(Cl)cc2)CCN(Cc2c[nH]c3ccccc23)CC1 [Compound 1],shift in the EC50 of α-MSH,[1],left shift
same,body weight as compared to vehicle,[2],statistically significant decrease
same,reduction in food intake as compared to vehicle,[2],~40%
same,body weight as compared to vehicle,[3],did not show a similar decrease
same,reduction in food intake as compared to vehicle,[3],did not show a similar reduction
same,dissociation of AgRP from the MC4 receptor,MC4 receptor [4],increases the dissociation
same,onset and peak response to αMSH,"MC4 receptor [5]; 3 μM and 10 μM Compound 1, all concentrations of αMSH",increased
same,activity induced by the compound itself,"MC4 receptor [5]; 10 μM Compound 1, 100 nM and 30 nM αMSH (FIG. 9E)",low level activity
same,maximum peak response to αMSH,MC4 receptor [5]; low concentrations of Compound 1,did not appreciably increase
same,EC50,MC4 receptor [6],3.96 µM
same,effect on AgRP activity,"MC4 receptor [7]; FIG. 8, cAMP",attenuates
same,effect on α-MSH activity,"MC4 receptor [7]; FIG. 8, cAMP",potentiates
Clc1ccc(N2CCN(Cc3c[nH]c4ncccc34)CC2)cc1 [Compound 2],shift in the EC50 of α-MSH,[1],left shift
same,EC50,MC4 receptor [6],252 µM
same,effect on the response of NDP-α-MSH,MC4 receptor [7]; cAMP accumulation,potentiate
Cc1c(C(=O)NN2CCCCC2)nn(-c2ccc(Cl)cc2Cl)c1-c1ccc(Cl)cc1 [Rimonabant],reduction of body weight,[8]; 10 mg/kg oral,15%
same,"weight reduction as compared to vehicle, significance",[8]; 10 mg/kg oral,statistically significant weight reduction
CC(C)CC(N(C)C)C1(c2ccc(Cl)cc2)CCC1 (stereo not drawn) [Sibutramine],reduction of body weight,[8]; 20 mg/kg oral,2%
